Key:
[1] = molecular target: T1, elastase (Sus scrofa, UniProt P00772); assay: Determination of elastase-inhibitory activity; format: biochemical, swine; details: read-out: inhibition rate, elastase
T1 construct: purchased Sigma; host or cells: swine pancreas
Procedure: (§1) The methods for the measurement of inhibitory activities against various proteases and the method for calculating the inhibition rate are as follows.
Determination of elastase-inhibitory activity
Similarly, by following the procedure mentioned above, but employing a 1 mM Tris-HCl buffer (pH 8.5) as a buffer for measurement, a 0.2 μM solution of elastase (derived from swine pancreas, Sigma) in the same buffer as an enzyme solution and a 200 μM solution of 7-(N-succinyl-aranyl-prolyl-aranyl)-4-methylcoumarinamide (Peptide Institute, Inc.) in the same buffer as a substrate solution, each fluorescence (e1, e2 and e3) was determined, respectively.
(§2) Using the fluorescence x1, x2 and x3 measured in the abovementioned manner, the inhibitory rate against various proteases was calculated by the following formula where x stands for b, c, d, e or f: [formula]

[2] = system: leucine aminopeptidase; assay: Determination of leucine aminopeptidase-inhibitory activity; format: biochemical, swine; set-up: unit not given here
Procedure: as §1
Determination of leucine aminopeptidase-inhibitory activity
Similarly, by following the procedure mentioned above, but employing a 50 mM Tris-HCl buffer (pH 8.0) as a buffer for measurement, a […] solution of leucine aminopeptidase (derived from swine kidney, Sigma) in the same buffer as an enzyme solution and a 200 μM solution of 7-leucyl-4-methyl-coumarinamide (Peptide Institute, Inc.) in the same buffer as a substrate solution, each fluorescence (d1, d2 and d3) was determined, respectively.
as §2

[3] = molecular target: T2, prolyl endopeptidase (Rattus norvegicus, UniProt O70196); assay: Prolyl endopeptidase-inhibitory activity; format: biochemical; details: for inhibition at 1 µM / inhibition at 0.1 µM: read-out: inhibition rate, prolyl endopeptidase; for IC50: prolyl endopeptidase extracted from rat brain, pH 7.0, 30° C., read-out: IC50
T2 construct: prolyl endopeptidase extracted from rat brain; from tissue; host or cells: rat brain
Procedure: Prolyl endopeptidase-inhibitory activity
A mixture of a 0.1M potassium sodium phosphate buffer (pH 7.0) (2675 μl), a solution of the compounds of the present invention in a 0.1M potassium sodium phosphate buffer (pH 7.0) (100 μl) and a solution of prolyl endopeptidase extracted from rat brain in a 25 mM sodium phosphate buffer (100 μl) [123 unit/1, pH 6.8, containing 1 mM dithiothreitol and 0.5 mM EDTA, prepared by the method described in J. Neurochem., 35, 527 (1980)]was preincubated at 30° C. for 30 minutes. Thereto was added a 0.2 mM solution of 7-(N-succinyl-glycyl-prolyl)-4-methylcoumarinamide (Peptide Institute, INC.) in a 0.1M potassium sodium phosphate buffer (pH 7.0) (125 μl), and the mixture was incubated at 30° C. for 1 hour. The reaction mixture was immersed in ice (0° C.) to terminate the reaction, and the fluorescence (a1) was determined ten minutes later (excitation at 370 nm and emission at 440 nm). Concurrently, there were conducted the experiment wherein, in the above system, the prolyl endopeptidase solution was substituted for a 25 mM sodium phosphate buffer (pH 6.8, containing 1 mM dithiothreitol and 0.5 mM EDTA) and the experiment wherein the solution of the compounds of the present invention was substituted for a 0.1M potassium sodium phosphate buffer (pH 7.0). Each fluorescence (a2 and a3) was determined respectively [See Tanpakushitsu Kakusan Koso, 29, 127 (1984)]. The prolyl endopeptidase-inhibition rate was calculated by the following formula, and IC50, a concentration of a compound producing 50% inhibition, was estimated by semilogarithmic graph paper. [formula] […]

[4] = molecular target: T3, chymotrypsin (Bos taurus, UniProt P00766); assay: Determination of chymotrypsin-inhibitory activity; format: biochemical, bovine; details: read-out: inhibition rate, chymotrypsin
T3 construct: purchased Sigma; host or cells: bovine pancreas
Procedure: as §1
Determination of chymotrypsin-inhibitory activity
Similarly, by following the procedure mentioned above, but employing a 50 mM Tris-HCl buffer (pH 8.0) as a buffer for measurement, a 0.2 μM solution of chymotrypsin (derived from bovine pancreas, Sigma) in the same buffer as an enzyme solution and a […] solution of 7-(N-succinyl-leucyl-leucyl-valyl-tyrosyl)-4-methylcoumarinamide (Peptide Institute, Inc.) in the same buffer as a substrate solution, each fluorescence (c1, c2 and c3) was determined, respectively.
as §2

[5] = molecular target: T4, cathepsin B (Bos taurus, UniProt P07688); assay: Determination of cathepsin B-inhibitory activity; format: biochemical, bovine; details: read-out: inhibition rate, cathepsin B
T4 construct: purchased Sigma; host or cells: bovine spleen
Procedure: as §1
Determination of cathepsin B-inhibitory activity
Similarly, by following the procedure mentioned above, but employing a 100 mM sodium phosphate buffer (pH 6.0; containing 1.33 mM EDTA Na2) as a buffer for measurement, a 0.02 μM solution of cathepsin B (derived from bovine spleen, Sigma) in the same buffer as an enzyme solution and a 200 μM solution of 7-(N-benzyloxycarbonyl-phenylaranyl-arginyl)-4-methylcoumarinamide (Peptide Institute, Inc.) in the same buffer as a substrate solution, each fluorescence (f1, f2 and f3) was determined, respectively.
as §2

[6] = molecular target: T5, trypsin (Bos taurus, UniProt P00760); assay: Determination of trypsin-inhibitory activity; format: biochemical, bovine; details: read-out: inhibition rate, trypsin
T5 construct: purchased Sigma; host or cells: bovine pancreas
T5 sequence (P00760 24-246): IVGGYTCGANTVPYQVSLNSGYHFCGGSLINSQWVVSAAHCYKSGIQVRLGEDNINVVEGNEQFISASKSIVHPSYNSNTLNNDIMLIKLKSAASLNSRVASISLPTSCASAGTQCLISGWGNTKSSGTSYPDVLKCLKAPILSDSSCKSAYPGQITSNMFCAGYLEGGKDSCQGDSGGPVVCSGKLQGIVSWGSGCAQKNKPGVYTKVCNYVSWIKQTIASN
Procedure: as §1
Determination of trypsin-inhibitory activity
In the present invention, a 50 mM Tris-HCl buffer (pH 8.0) was employed as a buffer for measurement.
To a mixture of the above-mentioned buffer (850 μl), a solution of the compounds of the present invention in the same buffer (50 μl) and a 0.02 μM solution of trypsin (derived from bovine pancreas, Sigma) in the same buffer (50 μl) was added a 200 μM solution of 7-(prolyl-phenylaranyl-arginyl)-4-methylcoumarinamide (Peptide Institute, Inc.) in the same buffer (50 μl),and the mixture was incubated at 30° C. for 1 hour. The reaction mixture was immersed in ice (0° C.) to terminate the reaction, and the fluorescence (b1) was determined 1 hour later (excitation at 370 nm and emission at 440 nm). Concurrently, there were conducted the experiment wherein, in the system above, the trypsin solution was substituted for a buffer alone, and the experiment wherein the solution of the compounds of the present invention was substituted for a buffer above. Each fluorescence (b2 and b3) was determined respectively.
as §2

T1 sequence (P00772 27-266): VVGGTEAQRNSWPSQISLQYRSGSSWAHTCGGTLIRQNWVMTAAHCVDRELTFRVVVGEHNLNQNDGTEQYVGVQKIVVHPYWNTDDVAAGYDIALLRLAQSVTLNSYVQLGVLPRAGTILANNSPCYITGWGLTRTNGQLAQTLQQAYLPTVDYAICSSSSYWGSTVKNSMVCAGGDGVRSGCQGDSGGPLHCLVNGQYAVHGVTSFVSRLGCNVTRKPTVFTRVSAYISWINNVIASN
T2 sequence (O70196 whole entry): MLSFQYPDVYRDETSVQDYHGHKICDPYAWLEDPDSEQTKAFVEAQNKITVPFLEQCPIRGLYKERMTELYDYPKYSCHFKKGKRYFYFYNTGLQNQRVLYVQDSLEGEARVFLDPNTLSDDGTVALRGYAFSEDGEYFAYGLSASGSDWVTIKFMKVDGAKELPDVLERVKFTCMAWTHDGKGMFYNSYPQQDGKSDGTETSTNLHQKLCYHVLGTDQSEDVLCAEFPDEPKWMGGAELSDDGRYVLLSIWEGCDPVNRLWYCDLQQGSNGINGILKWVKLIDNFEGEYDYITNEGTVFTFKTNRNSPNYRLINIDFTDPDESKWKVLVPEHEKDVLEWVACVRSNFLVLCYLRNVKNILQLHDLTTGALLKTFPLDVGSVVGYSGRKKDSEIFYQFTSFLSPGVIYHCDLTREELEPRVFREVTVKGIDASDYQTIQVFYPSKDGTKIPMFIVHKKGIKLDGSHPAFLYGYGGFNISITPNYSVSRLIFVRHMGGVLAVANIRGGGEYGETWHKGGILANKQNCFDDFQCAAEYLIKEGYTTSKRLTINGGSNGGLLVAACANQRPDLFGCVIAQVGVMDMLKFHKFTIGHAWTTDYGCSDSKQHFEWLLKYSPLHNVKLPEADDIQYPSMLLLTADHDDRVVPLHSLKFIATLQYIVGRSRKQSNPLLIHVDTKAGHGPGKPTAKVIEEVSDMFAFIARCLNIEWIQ

Structure (SMILES) | inhibition at 1 µM [1] [%] | inhibition rate, leucine aminopeptidase ([2]; 1 μM) | inhibition at 1 µM [3] [%] | IC50 [3] [nM] | inhibition at 1 µM [4] [%] | inhibition at 1 µM [5] [%] | inhibition at 1 µM [6] [%] | inhibition at 0.1 µM [1] [%] | inhibition rate, leucine aminopeptidase ([2]; 0.1 μM) | inhibition at 0.1 µM [3] [%] | inhibition at 0.1 µM [4] [%] | inhibition at 0.1 µM [5] [%] | inhibition at 0.1 µM [6] [%]
COc1ccc([S@+]([O-])CC(=O)[C@@H]2CCCN2C(=O)[C@@H]2CCCN2C(=O)OCc2ccccc2)cc1 [Compound 12, (2S)-1-(N-Benzyloxycarbonyl-L-prolyl)-2-{[(R)-4-methoxy-phenylsulfinyl]acetyl}pyrrolidine] | 0 | 0 | 92 | 20 | 0 | 0 | 0 |  |  |  |  |  | 
Cc1ccc([S@@+]([O-])CC(=O)[C@@H]2CCCN2C(=O)[C@@H]2CCCN2C(=O)OCc2ccccc2)cc1 [Compound 13, (2S)-1-(N-Benzyloxycarbonyl-L-prolyl)-2-{[(S)-p-tolyl-sulfinyl]acetyl}pyrrolidine] |  |  |  | 0.3 |  |  |  | 0 | 0 | 98 | 0 | 0 | 0
Cc1ccc([S@+]([O-])CC(=O)[C@@H]2CCCN2C(=O)[C@@H]2CCCN2C(=O)OCc2ccccc2)cc1 [Compound 14] |  |  |  | 1.5 |  |  |  | 0 | 0 | 97 | 0 | 0 | 0
COc1ccc([S@@+]([O-])CC(=O)[C@@H]2CCCN2C(=O)[C@@H]2CCCN2C(=O)CCc2ccccc2)cc1 [Compound 15] |  |  |  | 2.5 |  |  |  | 0 | 0 | 98 | 0 | 0 | 0
Cc1ccc([S@@+]([O-])CC(=O)[C@@H]2CCCN2C(=O)[C@@H]2CCCN2C(=O)CCc2ccccc2)cc1 [Compound 16, (2S)-1-[N-(3-Phenylpropionyl)-L-prolyl]-2-{[(S)-p-tolylsulfinyl]acetyl}pyrrolidine] |  |  |  | 1.5 |  |  |  | 0 | 0 | 99 | 0 | 0 | 0
O=C(C[S@+]([O-])c1ccccc1)[C@@H]1CCCN1C(=O)[C@@H]1CCCN1C(=O)CCc1ccccc1 [Compound 17, (2S)-1-[N-(3-Phenylpropionyl)-L-prolyl]-2-{[(S)-phenylsulfinyl]acetyl}pyrrolidine] |  |  |  | 0.5 |  |  |  | 0 | 0 | 99 | 0 | 0 | 0
COc1ccc(OCC(=O)[C@@H]2CCCN2C(=O)[C@@H]2CCCN2C(=O)OCc2ccccc2)cc1 [Compound 18, (2S)-1-(N-Benzyloxycarbonyl-L-prolyl)-2-[(4-methoxyphenoxy)-acetyl]pyrrolidine] |  |  |  | 1.5 |  |  |  | 0 | 0 | 93 | 0 | 0 | 0
O=C(COc1ccccc1)[C@@H]1CCCN1C(=O)[C@@H]1CCCN1C(=O)CCc1ccccc1 [Compound 19, (2S)-2-(Phenoxyacetyl)-1-[N-(3-phenylpropionyl)-L-prolyl]-pyrrolidine] | 0 | 0 | 98 | 15 | 0 | 0 | 0 |  |  |  |  |  | 
COc1ccc(OCC(=O)[C@@H]2CCCN2C(=O)[C@@H]2CCCN2C(=O)CCc2ccccc2)cc1 [Compound 20, (2S)-2-[(4-Methoxyphenoxy)acetyl]-1-[N-(3-phenylpropionyl)-L-prolyl]pyrrolidine] | 0 | 0 | 96 | 40 | 0 | 0 | 0 |  |  |  |  |  | 
O=C(COc1ccccc1)[C@@H]1CCCN1C(=O)[C@@H]1CCCN1C(=O)NCc1ccccc1 [Compound 21, (2S)-1-(N-Benzylaminocarbonyl-L-prolyl)-2-(phenoxyacetyl)-pyrrolidine] | 0 | 0 | 99 | 15 | 0 | 0 | 0 |  |  |  |  |  | 
COc1ccc(OCC(=O)[C@@H]2CCCN2C(=O)[C@@H]2CCCN2C(=O)NCc2ccccc2)cc1 [Compound 22, (2S)-1-(N-Benzylaminocarbonyl-L-prolyl)-2-(4-methoxyphenoxyacetyl)pyrrolidine] | 0 | 0 | 97 | 25 | 0 | 0 | 0 |  |  |  |  |  | 
COc1ccc([S@@+]([O-])CC(=O)[C@@H]2CCCN2C(=O)[C@@H]2CCCN2C(=O)NCc2ccccc2)cc1 [Compound 23, (2S)-1-(N-Benzylaminocarbonyl-L-prolyl)-2-{[(S)-4-methoxyphenylsulfinyl]acetyl}pyrrolidine] | 0 | 0 | 99 | 15 | 0 | 0 | 0 |  |  |  |  |  | 
